What all share (assay type): biochemical
The target of one assay is T1, KRAS G12D (Homo sapiens, UniProt P01116, G12D).
T1 construct: Recombinant human RAS protein (2 nM)
As to the kind of experiment: HTRF nucleotide exchange assay (NEA), KRAS G12D. Particulars: recombinant human KRAS G12D aa1-188, 2 nM; lowest class = % inhibition at 10 μM. In short, it runs like this: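 Compound binding to KRAS G12D was measured by HTRF nucleotide exchange. Recombinant human KRAS G12D (aa1-188, N-terminal 6×His-tag, 2 nM) and 2 nM Europium anti-6×His antibody were combined with compound in 5 uL assay buffer in 384-well plates for 60 minutes at room temperature, then 5 ul of 200 nM EDA-GTP-DY647P1 was added for 30 minutes before time-resolved fluorescence reading.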
On the technique in general: TR-FRET usually uses a lanthanide donor and a delayed reading to cut background.

Another assay deals with T2, KRAS G12S (Homo sapiens, UniProt P01116, G12S).
T2 construct: 4 nM KRAS; aa1-188 containing the G12V, G12C, G12A or G12S amino acid substitution
T2 sequence (P01116 1-188 isoform P01116-2 G12S): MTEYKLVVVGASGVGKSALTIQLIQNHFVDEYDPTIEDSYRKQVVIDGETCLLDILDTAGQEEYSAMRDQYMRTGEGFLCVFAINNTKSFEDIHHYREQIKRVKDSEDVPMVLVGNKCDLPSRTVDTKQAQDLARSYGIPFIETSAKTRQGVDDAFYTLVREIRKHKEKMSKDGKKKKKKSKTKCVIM
As to the kind of experiment: HTRF nucleotide exchange assay (NEA), KRAS G12S. How it is done:
(§1) The capacity of compounds to bind KRAS G12D, other KRAS mutants and wildtype RAS isoforms was quantified using a HTRF nucleotide exchange assay. Recombinant human RAS protein (2 nM; aa1-188 KRAS WT, HRAS WT, NRAS WT, or KRAS containing the containing the G12D, G13D or Q61H amino acid substitutions, or 4 nM KRAS; aa1-188 containing the G12V, G12C, G12A or G12S amino acid substitution, an N-terminal 6×His-tag and leader sequence), and 2 nM Europium-labeled anti-6×His antibody were mixed in assay buffer (10 mM HEPES pH7.3, 150 mM NaCl, 5 mM MgCl2, 0.05% BSA, 0.0025% NP-40 and 100 mM KF) with various concentrations of compound in a 384-well plate and a volume of 5 uL. After a 60-minute incubation at room temperature, 5 ul of 200 nM EDA-GTP-DY647P1 (diluted in assay buffer) was added to the plate. Following 30-minute incubation at room temperature, time-resolved fluorescence was measured on a PerkinElmer Envision plate reader. DMSO (0.3%) and unlabeled […] (1 μM) or equivalent tool compound were used to generate the Max and Min assay signals, respectively. Data was analysed using a four-parameter logistic model to calculate IC50 values, with at least two independent replicates were performed for each compound.

A further assay concerns the target T3, KRAS G13D (Homo sapiens, UniProt P01116, G13D).
T3 construct: Recombinant human RAS protein (2 nM); aa1-188 KRAS WT
Kind of assay: HTRF nucleotide exchange assay (NEA), KRAS G13D. The conditions noted are these: recombinant human KRAS G13D aa1-188, 2 nM; lowest class = % inhibition at 10 μM. Here is the method: as §1

For the next assay, the target named is T4, KRAS WT (Homo sapiens, UniProt P01116).
T4 construct: Recombinant human RAS protein (2 nM); aa1-188 KRAS WT
T4 sequence (P01116 1-188 isoform P01116-2): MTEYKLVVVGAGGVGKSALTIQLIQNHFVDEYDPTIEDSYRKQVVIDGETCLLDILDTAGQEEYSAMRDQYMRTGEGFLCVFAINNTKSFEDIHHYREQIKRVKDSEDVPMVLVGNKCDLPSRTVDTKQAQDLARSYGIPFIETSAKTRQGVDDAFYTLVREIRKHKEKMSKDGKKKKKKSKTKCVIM
Kind of assay: HTRF nucleotide exchange assay (NEA), KRAS WT. The procedure, abridged:
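TR-FRET readout; IC50 by four-parameter logistic fit, ≥2 replicates. Protein: N-terminal 6×His KRAS aa1-188, 2 nM for WT/G13D, 4 nM for G12C/G12S, with 2 nM Eu anti-His. Compound pre-incubation 60 min RT, then fluorescent GTP analog (added as 200 nM solution), 30 min RT.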

The target of a further assay is T5, KRAS G12A (Homo sapiens, UniProt P01116, G12A).
T5 construct: 4 nM KRAS; aa1-188 containing the G12V, G12C, G12A or G12S amino acid substitution
T5 sequence (P01116 1-188 isoform P01116-2 G12A): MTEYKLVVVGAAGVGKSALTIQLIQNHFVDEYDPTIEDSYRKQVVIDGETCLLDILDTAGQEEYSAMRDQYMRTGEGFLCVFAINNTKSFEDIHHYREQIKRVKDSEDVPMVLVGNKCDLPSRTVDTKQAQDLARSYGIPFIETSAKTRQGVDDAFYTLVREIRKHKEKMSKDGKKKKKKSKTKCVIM
As to the kind of experiment: HTRF nucleotide exchange assay (NEA), KRAS G12A. Here is the method: as §1

The next assay deals with T6, KRAS G12C (Homo sapiens, UniProt P01116, G12C).
T6 construct: 4 nM KRAS; aa1-188 containing the G12V, G12C, G12A or G12S amino acid substitution
T6 sequence (P01116 1-188 isoform P01116-2 G12C): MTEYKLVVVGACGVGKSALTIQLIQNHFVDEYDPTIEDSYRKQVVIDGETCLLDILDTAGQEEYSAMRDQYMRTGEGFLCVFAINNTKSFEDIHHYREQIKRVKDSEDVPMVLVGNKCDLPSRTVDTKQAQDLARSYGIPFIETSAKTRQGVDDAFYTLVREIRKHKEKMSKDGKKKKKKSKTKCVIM
Kind of assay: HTRF nucleotide exchange assay (NEA), KRAS G12C. Here is the method:
as §1

For a further assay, the target named is T7, KRAS G12V (Homo sapiens, UniProt P01116, G12V).
T7 construct: 4 nM KRAS; aa1-188 containing the G12V, G12C, G12A or G12S amino acid substitution
T7 sequence (P01116 1-188 isoform P01116-2 G12V): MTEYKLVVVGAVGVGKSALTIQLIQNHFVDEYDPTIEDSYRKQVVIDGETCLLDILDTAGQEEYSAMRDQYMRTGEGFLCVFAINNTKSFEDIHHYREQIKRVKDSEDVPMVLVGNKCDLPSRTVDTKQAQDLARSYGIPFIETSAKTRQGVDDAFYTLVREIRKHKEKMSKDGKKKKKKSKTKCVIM
Kind of assay: HTRF nucleotide exchange assay (NEA), KRAS G12V. How it is done: as §1

The mark [1] stands for this setting: recombinant human KRAS G12S aa1-188, 4 nM, lowest class = % inhibition at 10 μM.

Where two headings read alike, the source gives them in different places.

T3 sequence (P01116 1-188 isoform P01116-2 G13D): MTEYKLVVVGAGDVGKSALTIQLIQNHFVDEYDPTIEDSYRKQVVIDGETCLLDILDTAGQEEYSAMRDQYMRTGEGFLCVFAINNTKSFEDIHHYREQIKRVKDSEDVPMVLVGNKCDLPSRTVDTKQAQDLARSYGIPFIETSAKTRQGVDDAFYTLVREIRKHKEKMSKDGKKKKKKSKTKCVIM
T1 sequence (P01116 1-188 isoform P01116-2 G12D): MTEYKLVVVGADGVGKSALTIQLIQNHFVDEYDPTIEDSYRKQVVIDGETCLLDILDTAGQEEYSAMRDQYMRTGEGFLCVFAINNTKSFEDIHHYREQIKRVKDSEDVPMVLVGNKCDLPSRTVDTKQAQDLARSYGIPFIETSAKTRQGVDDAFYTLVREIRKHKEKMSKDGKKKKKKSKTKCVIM

Take `O=S1(=O)CCN(c2nc(OCC34CCCN3CCC4)nc3c(F)c(-c4cc(O)cc5ccccc45)ncc23)CC1` [Example 22, 4-[4-(1,1-dioxo-1,4-thiazinan-4-yl)-8-fluoro-2-(1,2,3,5,6,7-hexahydropyrrolizin-8-ylmethoxy)pyrido[4,3-d]pyrimidin-7-yl]naphthalen-2-ol]: the IC50 (usually the concentration that gives 50% inhibition) was 100 to 10000 nM at KRAS G12D; 100 to 10000 nM against KRAS G12S; over 10000 nM at KRAS G13D; 100 to 10000 nM at KRAS WT; 100 to 10000 nM against KRAS G12A.
For the compound `Oc1cc(-c2ncc3c(NCC4CCOCC4)nc(OCC45CCCN4CCC5)nc3c2F)c2ccccc2c1` [Example 9, 4-[8-fluoro-2-(1,2,3,5,6,7-hexahydropyrrolizin-8-ylmethoxy)-4-(tetrahydropyran-4-ylmethylamino)pyrido[4,3-d]pyrimidin-7-yl]naphthalen-2-ol], the IC50 is 100 to 10000 nM on KRAS G12D; 100 to 10000 nM at KRAS G12S; 100 to 10000 nM at KRAS G12C; over 10000 nM on KRAS G13D; 100 to 10000 nM on KRAS WT; 100 to 10000 nM at KRAS G12A. Further, at KRAS G12V, the IC50 is 100 to 10000 nM.
Consider `COCC(C)CNc1nc(OCC23CCCN2CCC3)nc2c(F)c(-c3cc(O)cc4ccccc34)ncc12` (centres unmarked) [Example 31, 4-[8-fluoro-2-(1,2,3,5,6,7-hexahydropyrrolizin-8-ylmethoxy)-4-[(3-methoxy-2-methyl-propyl)amino]pyrido [4,3-d]pyrimidin-7-yl]naphthalen-2-ol], for which the IC50 on KRAS G12D was 100 to 10000 nM; against KRAS G12S it was 100 to 10000 nM; at KRAS G13D, over 10000 nM; on KRAS WT, 100 to 10000 nM; on KRAS G12A, 100 to 10000 nM.
Take `O=C1CN(c2nc(OCC34CCCN3CCC4)nc3c(F)c(-c4cc(O)cc5ccccc45)ncc23)CCCN1` [Example 14, 4-[8-fluoro-2-(1,2,3,5,6,7-hexahydropyrrolizin-8-ylmethoxy)-7-(3-hydroxy-1-naphthyl)pyrido[4,3-d]pyrimidin-4-yl]-1,4-diazepan-2-one]: the IC50 on KRAS G12D was 10 to 100 nM; against KRAS G12S it was 100 to 10000 nM; on KRAS G12C it was 10 to 100 nM; at KRAS G13D it was over 10000 nM; against KRAS WT, 100 to 10000 nM; on KRAS G12A, 100 to 10000 nM. The compound further displayed an IC50 against KRAS G12V of 10 to 100 nM.
Consider `COC(C)CCNc1nc(OCC23CCCN2CCC3)nc2c(F)c(-c3cc(O)cc4ccccc34)ncc12` (centres unmarked) [Example 32, 4-[8-fluoro-2-(1,2,3,5,6,7-hexahydropyrrolizin-8-ylmethoxy)-4-(3-methoxybutylamino)pyrido[4,3-d]pyrimidin-7-yl]naphthalen-2-ol], for which the IC50 at KRAS G12D is 100 to 10000 nM; on KRAS G12S it was 100 to 10000 nM; on KRAS G13D, over 10000 nM; at KRAS WT it was 100 to 10000 nM; on KRAS G12A, 100 to 10000 nM.
Take `Oc1cc(-c2ncc3c(N4CCOC5(CCCC5)C4)nc(OCC45CCCN4CCC5)nc3c2F)c2ccccc2c1` [Example 4, 4-[8-fluoro-2-(1,2,3,5,6,7-hexahydropyrrolizin-8-ylmethoxy)-4-(6-oxa-9-azaspiro[4.5]-decan-9-yl)pyrido[4,3-d]pyrimidin-7-yl]naphthalen-2-ol]: the IC50 on KRAS G12D is 100 to 10000 nM; at KRAS G12S (setting [1]) it was over 10000 nM; on KRAS G12C, 100 to 10000 nM; at KRAS G13D, over 10000 nM; against KRAS WT it was 100 to 10000 nM; on KRAS G12A, 100 to 10000 nM. Also, at KRAS G12V, the IC50 fell in the range of 100 to 10000 nM.
`CSCCCN(C)c1nc(OCC23CCCN2CCC3)nc2c(F)c(-c3cc(O)cc4ccccc34)ncc12` [Example 27, 4-[8-fluoro-2-(1,2,3,5,6,7-hexahydropyrrolizin-8-ylmethoxy)-4-[methyl(3-methylsulfanylpropyl)amino]pyrido[4,3-d]pyrimidin-7-yl]naphthalen-2-ol]: the IC50 was 100 to 10000 nM on KRAS G12D; 100 to 10000 nM against KRAS G12S; 100 to 10000 nM against KRAS G12C; over 10000 nM at KRAS G13D; 100 to 10000 nM on KRAS WT; 100 to 10000 nM on KRAS G12A.
As for `COCC1CCN(c2nc(OCC34CCCN3CCC4)nc3c(F)c(-c4cc(O)cc5ccccc45)ncc23)C1` (centres unmarked) [Example 33, 4-[8-fluoro-2-(1,2,3,5,6,7-hexahydropyrrolizin-8-ylmethoxy)-4-[3-(methoxymethyl)pyrrolidin-1-yl]pyrido [4,3-d]pyrimidin-7-yl]naphthalen-2-ol], the IC50 on KRAS G12D was 100 to 10000 nM; on KRAS G12S (setting [1]) it was over 10000 nM; on KRAS G13D it was over 10000 nM; on KRAS WT, 100 to 10000 nM; against KRAS G12A, 100 to 10000 nM.
As to `Oc1cc(-c2ncc3c(NC4CCCCCC4)nc(OCC45CCCN4CCC5)nc3c2F)c2ccccc2c1` [Example 36, 4-[4-(cycloheptylamino)-8-fluoro-2-(1,2,3,5,6,7-hexahydropyrrolizin-8-ylmethoxy)pyrido [4,3-d]pyrimidin-7-yl]naphthalen-2-ol], the IC50 is 100 to 10000 nM on KRAS G12D; over 10000 nM at KRAS G12S (setting [1]); over 10000 nM at KRAS G13D; 100 to 10000 nM against KRAS WT; 100 to 10000 nM against KRAS G12A.
For the compound `O=C1CN(c2nc(OCC34CCCN3CCC4)nc3c(F)c(-c4cc(O)cc5ccccc45)ncc23)CCN1` [Example 10, 4-[8-fluoro-2-(1,2,3,5,6,7-hexahydropyrrolizin-8-ylmethoxy)-7-(3-hydroxy-1-naphthyl)pyrido[4,3-d]pyrimidin-4-yl]piperazin-2-one], the IC50 on KRAS G12D was 100 to 10000 nM; against KRAS G12S, 100 to 10000 nM; on KRAS G12C, 100 to 10000 nM; on KRAS G13D, over 10000 nM; on KRAS WT, 100 to 10000 nM; at KRAS G12A, 100 to 10000 nM. The IC50 against KRAS G12V was in the range of 100 to 10000 nM.
As for `[O-][S+]1CCCN(c2nc(OCC34CCCN3CCC4)nc3c(F)c(-c4cc(O)cc5ccccc45)ncc23)CC1` (centres unmarked) [Example 90, 4-[8-fluoro-2-(1,2,3,5,6,7-hexahydropyrrolizin-8-ylmethoxy)-4-(1-oxo-1,4-thiazepan-4-yl)pyrido[4,3-d]pyrimidin-7-yl]naphthalen-2-ol], the half-maximal inhibitory concentration (IC50) at KRAS G12D was at most 10 nM; on KRAS G12S it was 100 to 10000 nM; against KRAS G12C, 10 to 100 nM; at KRAS WT it was 10 to 100 nM; against KRAS G12A, 10 to 100 nM; against KRAS G12V, 10 to 100 nM.
Regarding `Oc1cc(-c2ncc3c(N4CCCCCC4)nc(OCC45CCCN4CCC5)nc3c2F)c2ccccc2c1` [Example 17, 4-[4-(azepan-1-yl)-8-fluoro-2-(1,2,3,5,6,7-hexahydropyrrolizin-8-ylmethoxy)pyrido[4,3-d]pyrimidin-7-yl]naphthalen-2-ol], the 50% inhibitory concentration (IC50) on KRAS G12D, against KRAS G12S, against KRAS G12C, on KRAS WT, against KRAS G12A and on KRAS G12V was 10 to 100 nM in each case.
`Oc1cc(-c2ncc3c(N4CC5CCC(C5)C4)nc(OCC45CCCN4CCC5)nc3c2F)c2ccccc2c1` [Example 47, 4-[4-(3-azabicyclo[3.2.1]octan-3-yl)-8-fluoro-2-(1,2,3,5,6,7-hexahydropyrrolizin-8-ylmethoxy)pyrido [4,3-d]pyrimidin-7-yl]naphthalen-2-ol]: the half-maximal inhibitory concentration (IC50) at KRAS G12D is 100 to 10000 nM; against KRAS G12S, 100 to 10000 nM; against KRAS G12C it was 10 to 100 nM; on KRAS WT, 10 to 100 nM; against KRAS G12A, 10 to 100 nM; against KRAS G12V it was 10 to 100 nM.
Regarding `CC1CN(c2nc(OCC34CCCN3CCC4)nc3c(F)c(-c4cc(O)cc5ccccc45)ncc23)CCCO1` (centres unmarked) [Example 16, 4-[8-fluoro-2-(1,2,3,5,6,7-hexahydropyrrolizin-8-ylmethoxy)-4-(2-methyl-1,4-oxazepan-4-yl)pyrido[4,3-d]pyrimidin-7-yl]naphthalen-2-ol], the IC50 at KRAS G12D fell in the range of 10 to 100 nM; against KRAS G12S, 100 to 10000 nM; at KRAS G12C it was 10 to 100 nM; against KRAS WT, 10 to 100 nM; on KRAS G12A, 10 to 100 nM; against KRAS G12V, 10 to 100 nM.

The values are drawn from US20240279241A1, “PYRIDO[4,3-D]PYRIMIDINE COMPOUNDS CAPABLE OF INHIBITING KRAS MUTANT PROTEINS” (Redx Pharma PLC, priority 2021, published 2024).
